In brackets after ≈: the same amount, converted by molar mass.
Columns and labels:
[1] = tested on: Acinetobacter baumannii NCTC 13420; test: MIC, broth microdilution (CLSI) versus planktonic bacteria; format: cell-based; conditions: NCTC13420; Acinetobacter baumannii NCTC 13420; 16-20 h; mode of three independent experiments; read-out: MIC, Ab NCTC 13420
[2] = tested on: Acinetobacter baumannii ATCC 19606; test: as above; format: cell-based; conditions: ATCC19606; Acinetobacter baumannii ATCC 19606; 16-20 h; mode of three independent experiments; read-out: MIC, Ab ATCC 19606
[3] = tested on: Enterobacter cloacae NCTC 13406; test: as above; format: cell-based; conditions: NCTC13406; Enterobacter cloacae NCTC 13406; 16-20 h; mode of three independent experiments; read-out: MIC, Ecl NCTC 13406
[4] = tested on: Escherichia coli ATCC 25922; test: as above; format: cell-based; conditions: ATCC25922; Escherichia coli ATCC 25922; 16-20 h; mode of three independent experiments; read-out: MIC, Ec ATCC 25922
E. coli ATCC BAA-2452 = test: as above; format: cell-based; conditions: Escherichia coli ATCC BAA-2452; 16-20 h; mode of three independent experiments; read-out: MIC, Ec ATCC BAA 2452
E. coli NCTC 13476 = test: as above; format: cell-based; conditions: NCTC13476; Escherichia coli NCTC 13476; 16-20 h; mode of three independent experiments; read-out: MIC, Ec NCTC 13476
E. coli MG1655 = test: as above; format: cell-based, Escherichia coli; conditions: Escherichia coli, MG1655, read-out: MIC, Ec MG1655 WT
[5] = tested on: Haemophilus influenzae ATCC 49247; test: as above; format: cell-based; conditions: ATCC49247; Haemophilus influenzae ATCC 49247; 16-20 h; mode of three independent experiments; read-out: MIC, Hi ATCC 49247
[6] = tested on: Pseudomonas aeruginosa ATCC 27853; test: as above; format: cell-based; conditions: ATCC27853; Pseudomonas aeruginosa ATCC 27853; 16-20 h; mode of three independent experiments; read-out: MIC, Pa ATCC 27853
[7] = tested on: Staphylococcus aureus ATCC 29213; test: as above; format: cell-based; conditions: ATCC29213; Staphylococcus aureus ATCC 29213; 16-20 h; mode of three independent experiments; read-out: MIC, Sa ATCC 29213
[8] = tested on: Streptococcus pneumoniae ATCC 49619; test: as above; format: cell-based; conditions: ATCC49619; Streptococcus pneumoniae ATCC 49619; 16-20 h; mode of three independent experiments; read-out: MIC, Sp ATCC 49619
E. coli MG1655 S83L = format: cell-based, Escherichia coli; conditions: compared to the isogenic parent strain E. coli MG1655; S83L mutation on DNA gyrase subunit GyrA
E. coli MG1655 D87G = format: cell-based, Escherichia coli; conditions: compared to the isogenic parent strain E. coli MG1655; D87G mutation on DNA gyrase subunit GyrA
[9] = tested on: human hepatic cell line (HepG2 ATCC HB-8065); test: Human cell viability assay (CellTiter-Glo); conditions: Homo sapiens, HepG2, 24 h, read-out: IC50 (μg/mL) HepG2

Row | Compound | MIC [1] | MIC [2] | MIC [3] | MIC [4] | MIC (E. coli ATCC BAA-2452) | MIC (E. coli NCTC 13476) | MIC (E. coli MG1655) | MIC [5] | MIC [6] | MIC [7] | MIC [8] | Fold increase in MIC, E. coli MG1655 S83L (E. coli MG1655 S83L) | Fold increase in MIC, E. coli MG1655 D87G (E. coli MG1655 D87G) | IC50 [9]
1 | COc1ccc2ncc(=O)n(CCN[C@H]3CC[C@H]4[C@@H](C3)OC(=O)N4c3ccc4c(n3)NC(=O)CO4)c2n1 [Compound 35, (3aS,6S,7aR)-6-[(2-{6-methoxy-3-oxo-3H,4H-pyrido[2,3-b]pyrazin-4-yl}ethyl)amino]-3-{3-oxo-2H,3H,4H-pyrido[3,2-b][1,4]oxazin-6-yl}-octahydro-1,3-benzoxazol-2-one] | < 1 µg/mL | < 1 µg/mL | < 1 µg/mL | < 1 µg/mL | < 1 µg/mL | < 1 µg/mL | < 1 µg/mL | < 1 µg/mL | < 1 µg/mL | < 1 µg/mL | < 1 µg/mL | 1 fold | 2 fold | > 100 µg/mL
2 | COc1ccc2ccc(=O)n(CCN[C@@H]3CC[C@@H]4[C@@H](C3)OC(=O)N4c3ncc4c(n3)NC(=O)CO4)c2n1 [Compound 44, 1-(2-{[(3aR,6R,7aR)-2-oxo-3-{7-oxo-6H,7H,8H-pyrimido[5,4-b][1,4]oxazin-2-yl}-octahydro-1,3-benzoxazol-6-yl]amino}ethyl)-7-methoxy-1,2-dihydro-1,8-naphthyridin-2-one] | < 1 µg/mL | < 1 µg/mL | < 1 µg/mL | < 1 µg/mL | < 1 µg/mL | 1 to 10 µg/mL (≈ 1.97 to 19.7 µM) | < 1 µg/mL | < 1 µg/mL | 1 to 10 µg/mL (≈ 1.97 to 19.7 µM) | < 1 µg/mL | < 1 µg/mL | 2 fold | 2 fold | > 100 µg/mL
3 | N#Cc1cnc2ccc(=O)n(CCN[C@H]3CC[C@H]4[C@@H](C3)OC(=O)N4c3ccc4c(n3)NC(=O)CO4)c2c1 [Compound 46, 5-(2-{[(3aS,6S,7aR)-2-oxo-3-{3-oxo-2H,3H,4H-pyrido[3,2-b][1,4]oxazin-6-yl}-octahydro-1,3-benzoxazol-6-yl]amino}ethyl)-6-oxo-5,6-dihydro-1,5-naphthyridine-3-carbonitrile] | 1 to 10 µg/mL (≈ 1.99 to 19.9 µM) | 1 to 10 µg/mL (≈ 1.99 to 19.9 µM) | < 1 µg/mL | < 1 µg/mL | 1 to 10 µg/mL (≈ 1.99 to 19.9 µM) | 1 to 10 µg/mL (≈ 1.99 to 19.9 µM) | < 1 µg/mL | < 1 µg/mL | 1 to 10 µg/mL (≈ 1.99 to 19.9 µM) | < 1 µg/mL | < 1 µg/mL | 2 fold | 1 fold | > 100 µg/mL
4 | CN(CCn1c(=O)ccc2ccc(C#N)cc21)[C@H]1CC[C@H]2[C@@H](C1)OC(=O)N2c1ccc2c(n1)NC(=O)CO2 [Compound 47, 1-(2-{[(3aS,6S,7aR)-2-oxo-3-{3-oxo-2H,3H,4H-pyrido[3,2-b][1,4]oxazin-6-yl}-octahydro-1,3-benzoxazol-6-yl](methyl)amino}ethyl)-2-oxo-1,2-dihydroquinoline-7-carbonitrile] | < 1 µg/mL | < 1 µg/mL | < 1 µg/mL | < 1 µg/mL | < 1 µg/mL | 1 to 10 µg/mL (≈ 1.94 to 19.4 µM) | < 1 µg/mL | < 1 µg/mL | < 1 µg/mL | < 1 µg/mL | < 1 µg/mL | 2 fold | 1 fold | 10 to 100 µg/mL (≈ 19.4 to 194 µM)
5 | N#Cc1ccc2ncc(=O)n(CCN[C@H]3CC[C@H]4[C@H](C3)OC(=O)N4c3ccc4c(n3)NC(=O)CO4)c2c1 [Compound 64, 4-(2-{[(3aS,6S,7aS)-2-oxo-3-{3-oxo-2H,3H,4H-pyrido[3,2-b][1,4]oxazin-6-yl}-octahydro-1,3-benzoxazol-6-yl]amino}ethyl)-3-oxo-3,4-dihydroquinoxaline-6-carbonitrile] | < 1 µg/mL | 1 to 10 µg/mL (≈ 1.99 to 19.9 µM) | < 1 µg/mL | < 1 µg/mL | < 1 µg/mL | 1 to 10 µg/mL (≈ 1.99 to 19.9 µM) | < 1 µg/mL | < 1 µg/mL | 1 to 10 µg/mL (≈ 1.99 to 19.9 µM) | < 1 µg/mL | < 1 µg/mL | 0.5 fold | 1 fold | 10 to 100 µg/mL (≈ 19.9 to 199 µM)
6 | COc1ccc2ccc(=O)n(CCN[C@H]3CC[C@H]4[C@H](C3)OC(=O)N4c3ncc4c(n3)NC(=O)CO4)c2n1 [Compound 67, 1-(2-{[(3aS,6S,7aS)-2-oxo-3-{7-oxo-6H,7H,8H-pyrimido[5,4-b][1,4]oxazin-2-yl}-octahydro-1,3-benzoxazol-6-yl]amino}ethyl)-7-methoxy-1,2-dihydro-1,8-naphthyridin-2-one] | < 1 µg/mL | 1 to 10 µg/mL (≈ 1.97 to 19.7 µM) | 1 to 10 µg/mL (≈ 1.97 to 19.7 µM) | < 1 µg/mL | 1 to 10 µg/mL (≈ 1.97 to 19.7 µM) | 1 to 10 µg/mL (≈ 1.97 to 19.7 µM) | < 1 µg/mL | < 1 µg/mL | 1 to 10 µg/mL (≈ 1.97 to 19.7 µM) | < 1 µg/mL | < 1 µg/mL | 1 fold | 1 fold | > 100 µg/mL
7 | N#Cc1ccc2ncc(=O)n(CCN[C@@H]3CC[C@@H]4[C@@H](C3)OC(=O)N4c3ccc4c(n3)NC(=O)CO4)c2c1 [Compound 68, 4-(2-{[(3aR,6R,7aR)-2-oxo-3-{3-oxo-2H,3H,4H-pyrido[3,2-b][1,4]oxazin-6-yl}-octahydro-1,3-benzoxazol-6-yl]amino}ethyl)-3-oxo-3,4-dihydroquinoxaline-6-carbonitrile] | < 1 µg/mL | < 1 µg/mL | < 1 µg/mL | < 1 µg/mL | < 1 µg/mL | < 1 µg/mL | < 1 µg/mL | < 1 µg/mL | 1 to 10 µg/mL (≈ 1.99 to 19.9 µM) | < 1 µg/mL | < 1 µg/mL | 1 fold | 1 fold | 10 to 100 µg/mL (≈ 19.9 to 199 µM)
8 | COc1cnc2ccc(=O)n(CCN[C@@H]3CC[C@@H]4[C@@H](C3)OC(=O)N4c3ccc4c(n3)NC(=O)CO4)c2c1 [Compound 69, 1-(2-{[(3aR,6R,7aR)-2-oxo-3-{3-oxo-2H,3H,4H-pyrido[3,2-b][1,4]oxazin-6-yl}-octahydro-1,3-benzoxazol-6-yl]amino}ethyl)-7-methoxy-1,2-dihydro-1,5-naphthyridin-2-one] | < 1 µg/mL | < 1 µg/mL | < 1 µg/mL | < 1 µg/mL | < 1 µg/mL | < 1 µg/mL | < 1 µg/mL | < 1 µg/mL | 1 to 10 µg/mL (≈ 1.97 to 19.7 µM) | < 1 µg/mL | < 1 µg/mL | 1 fold | 1 fold | > 100 µg/mL
9 | COc1cnnc(-c2cccc(CN[C@@H]3CC[C@@H]4[C@@H](C3)OC(=O)N4c3ccc4c(n3)NC(=O)CO4)c2O)c1 [Compound 72, (3aR,6R,7aR)-6-({[2-hydroxy-3-(5-methoxypyridazin-3-yl)phenyl]methyl}amino)-3-{3-oxo-2H,3H,4H-pyrido[3,2-b][1,4]oxazin-6-yl}-octahydro-1,3-benzoxazol-2-one] | < 1 µg/mL | < 1 µg/mL | 1 to 10 µg/mL (≈ 1.93 to 19.3 µM) | < 1 µg/mL | < 1 µg/mL | 1 to 10 µg/mL (≈ 1.93 to 19.3 µM) | < 1 µg/mL | < 1 µg/mL | 1 to 10 µg/mL (≈ 1.93 to 19.3 µM) | < 1 µg/mL | 1 to 10 µg/mL (≈ 1.93 to 19.3 µM) | 0.5 fold | 0.5 fold | 10 to 100 µg/mL (≈ 19.3 to 193 µM)
10 | N#Cc1ccc2ccc(=O)n(CCCN[C@@H]3CC[C@@H]4[C@@H](C3)OC(=O)N4c3ccc4c(n3)NC(=O)CO4)c2c1 [Compound 74, 1-(3-{[(3aR,6R,7aR)-2-oxo-3-{3-oxo-2H,3H,4H-pyrido[3,2-b][1,4]oxazin-6-yl}-octahydro-1,3-benzoxazol-6-yl]amino}propyl)-2-oxo-1,2-dihydroquinoline-7-carbonitrile] | < 1 µg/mL | < 1 µg/mL | < 1 µg/mL | < 1 µg/mL | < 1 µg/mL | < 1 µg/mL | < 1 µg/mL | < 1 µg/mL | < 1 µg/mL | < 1 µg/mL | < 1 µg/mL | 1 fold | 1 fold | 10 to 100 µg/mL (≈ 19.4 to 194 µM)
